Laboratory results as given in ChEMBL document CHEMBL1201862, “PubChem BioAssay data set” (2004).
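Each compound was tested at five concentrations against cells in 96-well plates for 48 hours. Abbreviation: GI50, concentration required for 50% inhibition of growth.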 Calls of active or inactive are those of the source. Cut-off read from the data, not from the text of the source: active = GI50 up to about 1.1 µM and inactive = higher.

Experiments:
Experiment in all cases: NCI tumour cell line growth inhibition, 48 h
U-251 = tested on: U-251
A549 = tested on: A549
SR = tested on: SR
UACC-257 = tested on: UACC-257
SF-295 = tested on: SF-295
NCI-H23 = tested on: NCI-H23
SN12C = tested on: SN12C
HL-60 = tested on: HL-60
EKVX = tested on: EKVX
HOP-92 = tested on: HOP-92
M14 = tested on: M14
TK-10 = tested on: TK-10
MCF7 = tested on: MCF7
DU-145 = tested on: DU-145
K562 = tested on: K562
MDA-MB-435 = tested on: MDA-MB-435
SK-MEL-5 = tested on: SK-MEL-5
SK-MEL-28 = tested on: SK-MEL-28
MOLT-4 = tested on: MOLT-4

Row | Compound | GI50 (U-251) | GI50 (A549) | GI50 (SR) | GI50 (UACC-257) | GI50 (SF-295) | GI50 (NCI-H23) | GI50 (SN12C) | GI50 (HL-60) | GI50 (EKVX) | GI50 (HOP-92) | GI50 (M14) | GI50 (TK-10) | GI50 (MCF7) | GI50 (DU-145) | GI50 (K562) | GI50 (MDA-MB-435) | GI50 (SK-MEL-5) | GI50 (SK-MEL-28) | GI50 (MOLT-4)
1 | CN(/C(=N\O)c1ccccc1)c1ccccc1 | 17.2 µM (inactive) | 47 µM (inactive) | 25 µM (inactive) | 38.6 µM (inactive) | 21 µM (inactive) | 24.4 µM (inactive) | 32.1 µM (inactive) | 19.7 µM (inactive) | 23.3 µM (inactive) | 5.12 µM (inactive) | 21.6 µM (inactive) | – | – | – | – | – | – | – | –
2 | CCCCCCCC/C=C\CCCCCCC(F)C(=O)O (stereo not drawn) | > 12.5 µM (inactive) | > 12.5 µM (inactive) | > 12.5 µM (inactive) | > 12.5 µM (inactive) | > 12.5 µM (inactive) | > 12.5 µM (inactive) | > 12.5 µM (inactive) | > 12.5 µM (inactive) | 2.25 µM (inactive) | > 12.5 µM (inactive) | > 12.5 µM (inactive) | > 12.5 µM (inactive) | > 12.5 µM (inactive) | > 12.5 µM (inactive) | > 12.5 µM (inactive) | > 12.5 µM (inactive) | > 12.5 µM (inactive) | > 12.5 µM (inactive) | > 12.5 µM (inactive)
3 | C/C(=N\NS(=O)(=O)c1ccccc1)c1ccc(Cl)c(Cl)c1 | 37.2 µM (inactive) | 46.2 µM (inactive) | 62.2 µM (inactive) | 50 µM (inactive) | 46.3 µM (inactive) | 75.3 µM (inactive) | 45.4 µM (inactive) | 97.3 µM (inactive) | 67.3 µM (inactive) | 67 µM (inactive) | 45.3 µM (inactive) | 50.1 µM (inactive) | – | – | 86.5 µM (inactive) | – | 42.5 µM (inactive) | 63.4 µM (inactive) | 47.8 µM (inactive)
4 | O=C1c2cccc(O)c2C(=O)c2c(O)cccc21 [DANTHRON] | 69.3 µM (inactive) | 56.1 µM (inactive) | 43.3 µM (inactive) | 85.1 µM (inactive) | 55.6 µM (inactive) | > 100 µM (inactive) | > 100 µM (inactive) | – | 98.9 µM (inactive) | > 100 µM (inactive) | 97.7 µM (inactive) | > 100 µM (inactive) | – | – | 92.9 µM (inactive) | – | – | > 100 µM (inactive) | 40.1 µM (inactive)
5 | O=C1/C(=C/c2ccccc2)CN(C(=O)OCC(Cl)(Cl)Cl)C/C1=C\c1ccccc1 | 1.68 µM (inactive) | 5.02 µM (inactive) | 2.07 µM (inactive) | 2.09 µM (inactive) | 1.83 µM (inactive) | 2.25 µM (inactive) | 1.84 µM (inactive) | 0.897 µM (active) | > 10 µM (inactive) | – | 2.14 µM (inactive) | 4.46 µM (inactive) | – | – | 1.32 µM (inactive) | – | 1.55 µM (inactive) | 1.66 µM (inactive) | 2.51 µM (inactive)
6 | COC1CC(n2cnc3c(N)ncnc32)OC1CO (stereo not drawn) | > 100 µM (inactive) | > 100 µM (inactive) | > 100 µM (inactive) | > 100 µM (inactive) | > 100 µM (inactive) | 81.5 µM (inactive) | – | > 100 µM (inactive) | – | > 100 µM (inactive) | > 100 µM (inactive) | > 100 µM (inactive) | – | – | > 100 µM (inactive) | – | > 100 µM (inactive) | > 100 µM (inactive) | > 100 µM (inactive)
7 | COc1ccc2cc3nc(O)cc(O)c3cc2c1OC | > 100 µM (inactive) | > 100 µM (inactive) | > 100 µM (inactive) | > 100 µM (inactive) | > 100 µM (inactive) | > 100 µM (inactive) | > 100 µM (inactive) | > 100 µM (inactive) | > 100 µM (inactive) | > 100 µM (inactive) | > 100 µM (inactive) | > 100 µM (inactive) | – | – | > 100 µM (inactive) | – | – | > 100 µM (inactive) | > 100 µM (inactive)
8 | O=C1C(Nc2ccc(S(=O)(=O)Nc3cnc4ccccc4n3)cc2)=C/C(=N\c2ccc(S(=O)(=O)Nc3cnc4ccccc4n3)cc2)c2ccccc21 | 19.1 µM (inactive) | 19.7 µM (inactive) | 31.4 µM (inactive) | 37.7 µM (inactive) | 16.3 µM (inactive) | 18.7 µM (inactive) | 16.7 µM (inactive) | 27.9 µM (inactive) | 18.2 µM (inactive) | 15 µM (inactive) | 18.5 µM (inactive) | 30.7 µM (inactive) | 19.5 µM (inactive) | 16.9 µM (inactive) | 28.1 µM (inactive) | 18.9 µM (inactive) | 17.5 µM (inactive) | 18.1 µM (inactive) | 25 µM (inactive)
9 | CC(=O)CC(=O)ON(C)C(C)=O | > 100 µM (inactive) | > 100 µM (inactive) | > 100 µM (inactive) | 7.69 µM (inactive) | > 100 µM (inactive) | 43.4 µM (inactive) | > 100 µM (inactive) | > 100 µM (inactive) | – | – | > 100 µM (inactive) | > 100 µM (inactive) | – | – | > 100 µM (inactive) | – | > 100 µM (inactive) | > 100 µM (inactive) | > 100 µM (inactive)
10 | CN(C)CC/[N+]([O-])=C(/c1ccccc1)C12CC3CC(CC(C3)C1)C2 | 16 µM (inactive) | 18.4 µM (inactive) | 16.2 µM (inactive) | 15.9 µM (inactive) | 14 µM (inactive) | 20.1 µM (inactive) | 17.2 µM (inactive) | 11.8 µM (inactive) | 21 µM (inactive) | 14.1 µM (inactive) | 13.4 µM (inactive) | 16.7 µM (inactive) | – | – | 15.1 µM (inactive) | – | 17.5 µM (inactive) | 16.2 µM (inactive) | 16.7 µM (inactive)
11 | CCCC(=O)N[C@@H](Cc1cc(I)c(O)c(I)c1)C(=O)NCCCNCCCCNCCCNC(=O)[C@@H](N)CCCN=C(N)N | > 100 µM (inactive) | > 100 µM (inactive) | > 100 µM (inactive) | > 100 µM (inactive) | > 10 µM (inactive) | 31.4 µM (inactive) | > 100 µM (inactive) | 33.7 µM (inactive) | > 100 µM (inactive) | – | 25.7 µM (inactive) | > 100 µM (inactive) | – | – | 45.1 µM (inactive) | – | 36.6 µM (inactive) | 50.4 µM (inactive) | 71.6 µM (inactive)
12 | COc1cc(OC)cc(Oc2nc3ccccc3nc2C(=O)O)c1 | > 100 µM (inactive) | > 100 µM (inactive) | > 100 µM (inactive) | > 100 µM (inactive) | > 100 µM (inactive) | > 100 µM (inactive) | – | > 100 µM (inactive) | > 100 µM (inactive) | > 100 µM (inactive) | > 100 µM (inactive) | > 100 µM (inactive) | – | > 100 µM (inactive) | > 100 µM (inactive) | > 100 µM (inactive) | > 100 µM (inactive) | > 100 µM (inactive) | > 100 µM (inactive)
13 | Nc1ncnc2c1N=CN(Oc1ccccc1)N2 | > 100 µM (inactive) | > 100 µM (inactive) | > 100 µM (inactive) | > 100 µM (inactive) | > 100 µM (inactive) | > 100 µM (inactive) | 21.5 µM (inactive) | – | > 100 µM (inactive) | > 100 µM (inactive) | > 100 µM (inactive) | > 100 µM (inactive) | – | – | > 100 µM (inactive) | – | > 100 µM (inactive) | > 100 µM (inactive) | > 100 µM (inactive)
14 | Cc1[nH]c2ccccc2c1C1Cc2ccccc2N1C(=O)/C=C/C=C/c1ccccc1 (stereo not drawn) | > 100 µM (inactive) | > 100 µM (inactive) | > 100 µM (inactive) | 33 µM (inactive) | > 100 µM (inactive) | > 100 µM (inactive) | > 100 µM (inactive) | 27.5 µM (inactive) | > 100 µM (inactive) | > 100 µM (inactive) | > 100 µM (inactive) | > 100 µM (inactive) | – | – | > 100 µM (inactive) | – | > 100 µM (inactive) | > 100 µM (inactive) | 12.7 µM (inactive)
15 | CC(CC(=O)Nc1ccc(NC(=O)CC(C)/N=N\C(N)=O)cc1)/N=N\C(N)=O (stereo not drawn) | > 100 µM (inactive) | > 100 µM (inactive) | 22.8 µM (inactive) | > 100 µM (inactive) | > 100 µM (inactive) | > 100 µM (inactive) | > 100 µM (inactive) | > 100 µM (inactive) | > 100 µM (inactive) | > 100 µM (inactive) | > 100 µM (inactive) | > 100 µM (inactive) | – | – | > 100 µM (inactive) | – | > 100 µM (inactive) | > 100 µM (inactive) | > 100 µM (inactive)
16 | COc1ccc(C2=NNC(=O)OC2c2ccccc2)cc1 (stereo not drawn) | > 100 µM (inactive) | 51.5 µM (inactive) | 55.2 µM (inactive) | 28.9 µM (inactive) | 22.4 µM (inactive) | 53.5 µM (inactive) | > 100 µM (inactive) | 67.5 µM (inactive) | 76 µM (inactive) | 43.6 µM (inactive) | 50.7 µM (inactive) | > 100 µM (inactive) | – | – | 26.7 µM (inactive) | – | – | > 100 µM (inactive) | 43.8 µM (inactive)
17 | O=C1C2Nc3ccccc3SC2C(=O)N1c1cccc([N+](=O)[O-])c1 (stereo not drawn) | > 100 µM (inactive) | 98.9 µM (inactive) | > 100 µM (inactive) | > 100 µM (inactive) | > 74.5 µM (inactive) | 55.8 µM (inactive) | > 86.9 µM (inactive) | > 100 µM (inactive) | > 100 µM (inactive) | > 100 µM (inactive) | > 100 µM (inactive) | 35.4 µM (inactive) | – | – | > 100 µM (inactive) | – | > 100 µM (inactive) | > 100 µM (inactive) | 51.8 µM (inactive)
